Assay results as given in patent US20150038435A1, “N-TERMINALLY MODIFIED OLIGOPEPTIDES AND USES THEREOF” (Novo Nordisk A/S, priority 2012, published 2015).
*: point of attachment. Lauroyl = CCCCCCCCCCCC(=O)*

Legend:
Chymotrypsin = assay: Inhibition of enzymatic degradation of a model GLP-1 (FRET substrate) by chymotrypsin; format: biochemical
Method in brief: (§1)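 Initial-rate slopes of fluorescence rise (320 nm ex, 405 nm em), fitted over the linear early phase and averaged from duplicates, were plotted against inhibitor concentration and fitted logistically to give EC50. Reactions ran at 37° C in Dulbecco's PBS, with MCA/DNP GLP-1 FRET substrate added as 10 μl of 100 μM stock.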

Trypsin = assay: Inhibition of enzymatic degradation of a model GLP-1 (FRET substrate) by trypsin; format: biochemical
Method in brief: as §1

[1] = Hydrophobicity: retention time during reverse phase HPLC; format: physicochemical; conditions: Acquity CSH C18; pH 7.2 buffer/CH3CN gradient; 40° C.
Source text: The retention time (RT) during reverse phase HPLC was taken as a measure of hydrophobicity of an N-terminally modified peptide or oligopeptide of the invention, where the connection is: The longer the RT, the more hydrophobic N-terminally modified peptide or oligopeptide. The following running conditions were applied during HPLC analysis:
Buffer B: 70% (v/v) aq. CH3CN

[2] = compound 0.1 mM, buffer containing 8% DMSO

| EC50 (Chymotrypsin; read-out: EC50 Chymotrypsin (0.001 mg/ml), 0.001 mg/ml chymotrypsin, 37° C., ± standard error if at least 3 measurements) [µM] | EC50 (Trypsin; read-out: EC50 Trypsin (0.001 mg/ml), 0.001 mg/ml trypsin, 37° C.) [µM] | Substance | Slope of the initial increase in fluorescence obtained during incubation with 0.001 mg/ml Chymotrypsin (Chymotrypsin; [2]) | Slope of the initial increase in fluorescence obtained during incubation with 0.001 mg/ml Trypsin (Trypsin; [2]) | RT (retention time during reverse phase HPLC as a measure of hydrophobicity) [1] [min] | Slope of the initial increase in fluorescence obtained during incubation with 0.001 mg/ml Chymotrypsin (Chymotrypsin; compound 1 mM) | Slope of the initial increase in fluorescence obtained during incubation with 0.001 mg/ml Trypsin (Trypsin; compound 1 mM) |
| --- | --- | --- | --- | --- | --- | --- | --- |
|  |  | N-dodecanoyl-Ala-Ala-Pro-Tyr-OH [Example 69] (Lauroyl-AAPY-OH; SMILES CCCCCCCCCCCC(=O)N[C@@H](C)C(=O)N[C@@H](C)C(=O)N1CCC[C@H]1C(=O)N[C@@H](Cc1ccc(O)cc1)C(=O)O) | 0.43 | 1.83 | 5.79 |  |  |
|  |  | N-dodecanoyl-Ala-Ile-Pro-Tyr-OH (Lauroyl-AIPY-OH; SMILES CCCCCCCCCCCC(=O)N[C@@H](C)C(=O)N[C@H](C(=O)N1CCC[C@H]1C(=O)N[C@@H](Cc1ccc(O)cc1)C(=O)O)[C@@H](C)CC) [Example 80] | 0.10 | 1.83 | 7.24 |  |  |
|  |  | N-dodecanoyl-Val-Ala-Ala-Pro-Tyr-OH [Example 54] | 0.95 | 1.95 | 7.08 |  |  |
|  |  | N-dodecanoyl-Met-Ala-Pro-Tyr-OH (Lauroyl-MAPY-OH; SMILES CCCCCCCCCCCC(=O)N[C@@H](CCSC)C(=O)N[C@@H](C)C(=O)N1CCC[C@H]1C(=O)N[C@@H](Cc1ccc(O)cc1)C(=O)O) [Example 47] | 0.48 | 1.77 | 7.09 |  |  |
|  |  | N-dodecanoyl-Ala-Lys-Pro-Tyr-OH (Lauroyl-AKPY-OH; SMILES CCCCCCCCCCCC(=O)N[C@@H](C)C(=O)N[C@@H](CCCCN)C(=O)N1CCC[C@H]1C(=O)N[C@@H](Cc1ccc(O)cc1)C(=O)O) [Example 82] | 0.24 | 1.50 | 5.07 |  |  |
|  |  | N-dodecanoyl-Ala-Met-Pro-Tyr-OH (Lauroyl-AMPY-OH; SMILES CCCCCCCCCCCC(=O)N[C@@H](C)C(=O)N[C@@H](CCSC)C(=O)N1CCC[C@H]1C(=O)N[C@@H](Cc1ccc(O)cc1)C(=O)O) [Example 83] | 0.32 | 1.64 | 6.88 |  |  |
|  |  | N-dodecanoyl-γGlu-OEG-OEG-Arg-OH [Example 132] |  |  | 3.62 | 0.35 | 0.26 |
|  |  | N-dodecanoyl-Lys-Ala-Pro-Tyr-OH (Lauroyl-KAPY-OH; SMILES CCCCCCCCCCCC(=O)N[C@@H](CCCCN)C(=O)N[C@@H](C)C(=O)N1CCC[C@H]1C(=O)N[C@@H](Cc1ccc(O)cc1)C(=O)O) [Example 45] | 0.89 | 1.84 | 4.62 |  |  |
|  |  | N-dodecanoyl-Ala-Ala-Glu-Tyr-OH (Lauroyl-AAEY-OH; SMILES CCCCCCCCCCCC(=O)N[C@@H](C)C(=O)N[C@@H](C)C(=O)N[C@@H](CCC(=O)O)C(=O)N[C@@H](Cc1ccc(O)cc1)C(=O)O) [Example 62] | 1.35 | 1.66 | 4.36 |  |  |
|  |  | N-dodecanoyl-Pro-Ala-Pro-Tyr-OH (Lauroyl-PAPY-OH; SMILES CCCCCCCCCCCC(=O)N1CCC[C@H]1C(=O)N[C@@H](C)C(=O)N1CCC[C@H]1C(=O)N[C@@H](Cc1ccc(O)cc1)C(=O)O) [Example 49] | 0.57 | 1.96 | 6.2 |  |  |
|  |  | N-dodecanoyl-Met-Pro-Tyr-OH [Example 123] | 0.82 | 2.11 | 7.23 |  |  |
|  |  | N-dodecanoyl-Ala-Ala-Val-Tyr-OH (Lauroyl-AAVY-OH; SMILES CCCCCCCCCCCC(=O)N[C@@H](C)C(=O)N[C@@H](C)C(=O)N[C@H](C(=O)N[C@@H](Cc1ccc(O)cc1)C(=O)O)C(C)C) [Example 72] | 1.18 | 1.52 | 6.44 |  |  |
| 106 | 13 | N-tetradecanoyl-βAla-βAla-Pro-Phe-OH [Example 136] |  |  | 8.73 |  |  |
|  |  | N-tetradecanoyl-βAla-Ala-Pro-Phe-OH [Example 9] |  |  | 8.73 | 0.01 | 0.21 |
|  |  | N-dodecanoyl-Ser-Ala-Ala-Pro-Tyr-OH [Example 50] | 0.09 | 1.48 | 5.16 |  |  |
|  |  | N-dodecanoyl-Met-Ala-Ala-Pro-Tyr-OH (Lauroyl-MAAPY-OH; SMILES CCCCCCCCCCCC(=O)N[C@@H](CCSC)C(=O)N[C@@H](C)C(=O)N[C@@H](C)C(=O)N1CCC[C@H]1C(=O)N[C@@H](Cc1ccc(O)cc1)C(=O)O) [Example 46] | 0.09 | 1.76 | 7.06 |  |  |
|  |  | N-dodecanoyl-Arg-Ala-Ala-Pro-Tyr-OH [Example 91] | 0.00 | 1.06 | 4.63 |  |  |
|  |  | N-dodecanoyl-Ala-Asn-Pro-Tyr-OH (Lauroyl-ANPY-OH; SMILES CCCCCCCCCCCC(=O)N[C@@H](C)C(=O)N[C@@H](CC(N)=O)C(=O)N1CCC[C@H]1C(=O)N[C@@H](Cc1ccc(O)cc1)C(=O)O) [Example 74] | 1.66 | 2.27 | 5.27 |  |  |
|  |  | N-dodecanoyl-Lys-Pro-Tyr-OH [Example 122] | 0.26 | 1.68 | 5.17 |  |  |
|  |  | N-dodecanoyl-Thr-Ala-Ala-Pro-Tyr-OH [Example 52] | 0.01 | 1.68 | 5.47 |  |  |
|  |  | N-dodecanoyl-Thr-Ala-Pro-Tyr-OH (Lauroyl-TAPY-OH; SMILES CCCCCCCCCCCC(=O)N[C@H](C(=O)N[C@@H](C)C(=O)N1CCC[C@H]1C(=O)N[C@@H](Cc1ccc(O)cc1)C(=O)O)[C@@H](C)O) [Example 53] | 0.16 | 1.80 | 5.52 |  |  |
|  |  | N-dodecanoyl-Ile-Pro-Tyr-OH [Example 120] | 0.17 | 1.08 | 7.82 |  |  |
|  |  | N-dodecanoyl-Arg-Pro-Tyr-OH [Example 113] | 0.18 | 2.00 | 5.29 |  |  |
|  |  | N-dodecanoyl-Ala-Ala-Thr-Tyr-OH (Lauroyl-AATY-OH; SMILES CCCCCCCCCCCC(=O)N[C@@H](C)C(=O)N[C@@H](C)C(=O)N[C@H](C(=O)N[C@@H](Cc1ccc(O)cc1)C(=O)O)[C@@H](C)O) [Example 71] | 0.91 | 1.76 | 5.61 |  |  |
|  |  | N-dodecanoyl-Ala-Phe-Pro-Tyr-OH (Lauroyl-AFPY-OH; SMILES CCCCCCCCCCCC(=O)N[C@@H](C)C(=O)N[C@@H](Cc1ccccc1)C(=O)N1CCC[C@H]1C(=O)N[C@@H](Cc1ccc(O)cc1)C(=O)O) [Example 84] | 0.14 | 1.43 | 7.77 |  |  |
